Converted amounts (≈) assume the structure as drawn.
Columns and labels:
Assay type in all cases: cell-based
[1] = tested on: Streptococcus pneumoniae ATCC6303; assay: MIC, microbroth dilution; conditions: Streptococcus pneumoniae ATCC6303, rifS; read-out: Antimicrobial activity (MIC)
[2] = tested on: Haemophilus influenzae ATCC10211; assay: MIC, microbroth dilution; conditions: Haemophilus influenzae ATCC10211, rifS; read-out: Antimicrobial activity (MIC)
[3] = tested on: Staphylococcus epidermidis ATCC12228; assay: MIC, microbroth dilution; conditions: Staphylococcus epidermidis ATCC12228, rifS; read-out: Antimicrobial activity (MIC)
[4] = tested on: Escherichia coli ATCC25922; assay: MIC, microbroth dilution; conditions: Escherichia coli ATCC25922, rifS; read-out: Antimicrobial activity (MIC)
[5] = tested on: Mycobacterium smegmatis ATCC700084; assay: MIC, microbroth dilution; conditions: Mycolicibacterium smegmatis; Mycobacterium smegmatis ATCC700084, rifS; read-out: Antimicrobial activity (MIC)
[6] = tested on: Enterococcus faecalis ATCC29212; assay: MIC, microbroth dilution; conditions: Enterococcus faecalis ATCC29212, rifS; read-out: Antimicrobial activity (MIC)
[7] = tested on: Staphylococcus aureus ATCC29213; assay: MIC, microbroth dilution; conditions: Staphylococcus aureus ATCC29213, rifS; read-out: Antimicrobial activity (MIC)
[8] = tested on: Streptococcus pyogenes ATCC19615; assay: MIC, microbroth dilution; conditions: Streptococcus pyogenes ATCC19615, rifS; read-out: Antimicrobial activity (MIC)
[9] = tested on: Staphylococcus aureus ATCC29213 rpoB^D417Y; assay: microbe, parasite or virus in culture; conditions: Staphylococcus aureus ATCC29213 rpoB^D417Y, rifR; read-out: Antimicrobial activity (MIC)
Method: (§1) Representative compounds were assayed for antimicrobial activity as follows: Minimum Inhibitory Concentrations (“MICs”) were determined by the microbroth dilution method as per NCCLS guidelines (National Committee for Clinical Laboratory Standards. 2000. Methods for dilution antimicrobial susceptibility tests for bacteria that grow aerobically, 5th ed. M7-A5. National Committee for Clinical Laboratory Standards, Wayne, Pa.), except that all growth incubations were conducted at 37° C. Bacterial cultures were tested in the following bacteriological media: S. aureus, S. epidermidis, and E. coli in Cation-Adjusted Mueller-Hinton Broth, S. pneumoniae in THY Broth supplemented with 1 mg/mL catalase under 5% CO2 atmosphere, S. pyogenes in THY Broth, E. faecalis in BHI Broth, H. influenzae in BHI Broth supplemented with 0.75 μL of 1 mg/mL NAD and 150 μL of 1 mg/ml hematin per 5 mL, and M. smegmatis in Middlebrook Broth plus ADC Enrichment.
(§2) S. aureus ATCC 29213 RpoB^H418Y is a rifampin-resistant strain with a mutation in the RpoB gene of RNA polymerase. […] S. aureus EN1252a gyrA^S84L grlA^S80F is a quinolone-resistant strain due to double gene mutations of DNA gyrase and topoisomerase IV.

[10] = tested on: Staphylococcus aureus ATCC29213 rpoB^H418Y; assay: microbe, parasite or virus in culture; conditions: Staphylococcus aureus ATCC29213 rpoB^H418Y, rifR; read-out: Antimicrobial activity (MIC)
Method: as §1, §2

[11] = tested on: Staphylococcus aureus EN1252a gyrA^S84L grlA^S80F; assay: microbe, parasite or virus in culture; conditions: Staphylococcus aureus EN1252a gyrA^S84L grlA^S80F, cipR; read-out: Antimicrobial activity (MIC)
Method: as §1, §2

## COc1c(N2CCN(/N=C/c3c4c(O)c5c(O)c(C)c6c(c5c3O)/C(=N/O)[C@@](C)(O/C=C/[C@H](OC)[C@@H](C)[C@@H](OC(C)=O)[C@H](C)[C@H](O)[C@H](C)[C@@H](O)[C@@H](C)/C=C/C=C(/C)C(=O)N4)O6)C(C)C2)c(F)cc2c(=O)c(C(=O)O)cn(C3CC3)c12 (mixture of isomers) [Example 40, (R/S)-3-[4-(3-Carboxy-1-cyclopropyl-6-fluoro-8-methoxy-4-oxo-1,4-dihydroquinolin-7-yl)-2-methyl-piperazin-1-yl-aminomethylenyl]-11-deoxy-11-hydroxyiminorifamycin SV]
[1]
  MIC: 0.0002 to 0.125 µg/mL (≈ 0.00018 to 0.112 µM)
[2]
  MIC: 0.03 to 2 µg/mL (≈ 0.0269 to 1.8 µM)
[3]
  MIC: 0.0005 to 0.063 µg/mL (≈ 0.000449 to 0.0566 µM)
[4]
  MIC: 0.125 to 8 µg/mL (≈ 0.112 to 7.19 µM)
[5]
  MIC: 0.5 to 64 µg/mL (≈ 0.449 to 57.5 µM)
[6]
  MIC: 2 to 32 µg/mL (≈ 1.8 to 28.7 µM)
[7]
  MIC: 0.004 to 0.5 µg/mL (≈ 0.00359 to 0.449 µM)
[8]
  MIC: 0.0005 to 0.063 µg/mL (≈ 0.000449 to 0.0566 µM)
[9]
  MIC: 0.25 to 32 µg/mL (≈ 0.225 to 28.7 µM)
[10]
  MIC: 0.125 to 16 µg/mL (≈ 0.112 to 14.4 µM)
[11]
  MIC: 0.004 to 0.5 µg/mL (≈ 0.00359 to 0.449 µM)

## CO[C@H]1/C=C/O[C@@]2(C)Oc3c(C)c(O)c4c(c3/C2=N/OCC(=O)N2CCN(c3cc5c(cc3F)c(=O)c(C(=O)O)cn5C3CC3)CC2)C(=O)C(N2CCOCC2)=C(NC(=O)/C(C)=C\C=C\[C@H](C)[C@H](O)[C@@H](C)[C@@H](O)[C@@H](C)[C@H](OC(C)=O)[C@@H]1C)C4=O [Example 29, 11-Deoxy-3-(morpholin-4-yl)-11-{2-oxo-2-[4-(3-carboxy-1-cyclopropl-6-fluoro-4-oxo-1,4-dihydroquinolin-7-yl)piperazin-1-yl]ethoxyimino}rifamycin S]
[1]
  MIC: 0.0002 to 0.125 µg/mL (≈ 0.000171 to 0.107 µM)
[2]
  MIC: 0.03 to 2 µg/mL (≈ 0.0257 to 1.71 µM)
[3]
  MIC: 0.0005 to 0.063 µg/mL (≈ 0.000428 to 0.054 µM)
[4]
  MIC: 0.125 to 8 µg/mL (≈ 0.107 to 6.85 µM)
[5]
  MIC: 0.5 to 64 µg/mL (≈ 0.428 to 54.8 µM)
[6]
  MIC: 2 to 32 µg/mL (≈ 1.71 to 27.4 µM)
[7]
  MIC: 0.004 to 0.5 µg/mL (≈ 0.00343 to 0.428 µM)
[8]
  MIC: 0.0005 to 0.063 µg/mL (≈ 0.000428 to 0.054 µM)
[9]
  MIC: 0.25 to 32 µg/mL (≈ 0.214 to 27.4 µM)
[10]
  MIC: 0.125 to 16 µg/mL (≈ 0.107 to 13.7 µM)
[11]
  MIC: 0.004 to 0.5 µg/mL (≈ 0.00343 to 0.428 µM)

## CO[C@H]1/C=C/O[C@@]2(C)Oc3c(C)c(O)c4c(c3/C2=N/OCCN2CCN(c3cccc(C(F)(F)F)c3)CC2)C(=O)C=C(NC(=O)/C(C)=C\C=C\[C@H](C)[C@H](O)[C@@H](C)[C@@H](O)[C@@H](C)[C@H](OC(C)=O)[C@@H]1C)C4=O [Example 18, 11-Deoxy-11-{2-[4-(3-trifluoromethyl-phenyl)-piperazin-1-yl]ethoxyimino}rifamycin S]
[1]
  MIC: 0.0002 to 0.125 µg/mL (≈ 0.000207 to 0.129 µM)
[2]
  MIC: 0.03 to 2 µg/mL (≈ 0.031 to 2.07 µM)
[3]
  MIC: 0.0005 to 0.063 µg/mL (≈ 0.000517 to 0.0651 µM)
[4]
  MIC: 0.125 to 8 µg/mL (≈ 0.129 to 8.27 µM)
[5]
  MIC: 0.5 to 64 µg/mL (≈ 0.517 to 66.2 µM)
[6]
  MIC: 2 to 32 µg/mL (≈ 2.07 to 33.1 µM)
[7]
  MIC: 0.004 to 0.5 µg/mL (≈ 0.00414 to 0.517 µM)
[8]
  MIC: 0.0005 to 0.063 µg/mL (≈ 0.000517 to 0.0651 µM)
[9]
  MIC: 0.25 to 32 µg/mL (≈ 0.259 to 33.1 µM)
[10]
  MIC: 0.125 to 16 µg/mL (≈ 0.129 to 16.5 µM)
[11]
  MIC: 0.004 to 0.5 µg/mL (≈ 0.00414 to 0.517 µM)

## CO[C@H]1/C=C/O[C@@]2(C)Oc3c(C)c(O)c4c(O)c(c(/C=N/N5CCN(c6cc7c(cc6F)c(=O)c(C(=O)O)cn7C6CC6)CC5)c(O)c4c3/C2=N/O)NC(=O)/C(C)=C\C=C\[C@H](C)[C@H](O)[C@@H](C)[C@@H](O)[C@@H](C)[C@H](OC(C)=O)[C@@H]1C [Example 39, 3-[4-(3-Carboxy-1-cyclopropyl-6-fluoro-4-oxo-1,4-dihydroquinolin-7-yl)piperazin-1-yl-aminomethylenyl]-11-deoxy-11-hydroxyiminorifamycin SV]
[1]
  MIC: 0.0002 to 0.125 µg/mL (≈ 0.000187 to 0.117 µM)
[2]
  MIC: 0.03 to 2 µg/mL (≈ 0.0281 to 1.87 µM)
[3]
  MIC: 0.0005 to 0.063 µg/mL (≈ 0.000468 to 0.0589 µM)
[4]
  MIC: 0.125 to 8 µg/mL (≈ 0.117 to 7.48 µM)
[5]
  MIC: 0.5 to 64 µg/mL (≈ 0.468 to 59.9 µM)
[6]
  MIC: 2 to 32 µg/mL (≈ 1.87 to 29.9 µM)
[7]
  MIC: 0.004 to 0.5 µg/mL (≈ 0.00374 to 0.468 µM)
[8]
  MIC: 0.0005 to 0.063 µg/mL (≈ 0.000468 to 0.0589 µM)
[9]
  MIC: 0.25 to 32 µg/mL (≈ 0.234 to 29.9 µM)
[10]
  MIC: 0.125 to 16 µg/mL (≈ 0.117 to 15 µM)
[11]
  MIC: 0.004 to 0.5 µg/mL (≈ 0.00374 to 0.468 µM)

## COc1c(N2CCN(C(=O)CO/N=C3/c4c5c(C)c(O)c6c4C(=O)C(N4CCOCC4)=C(NC(=O)/C(C)=C\C=C\[C@H](C)[C@H](O)[C@@H](C)[C@@H](O)[C@@H](C)[C@H](OC(C)=O)[C@H](C)[C@@H](OC)/C=C/O[C@@]3(C)O5)C6=O)C(C)C2)c(F)cc2c(=O)c(C(=O)O)cn(C3CC3)c12 (stereo partly shown) [Example 30, 11-Deoxy-3-(morpholin-4-yl)-11-{2-oxo-2-[4-(3-carboxy-1-cyclopropyl-6-fluoro-8-methoxy-4-oxo-1,4-dihydroquinolin-7-yl)-2-methylpiperazin-1-yl]ethoxyimino}rifamycin S]
[1]
  MIC: 0.0002 to 0.125 µg/mL (≈ 0.000165 to 0.103 µM)
[2]
  MIC: 0.03 to 2 µg/mL (≈ 0.0248 to 1.65 µM)
[3]
  MIC: 0.0005 to 0.063 µg/mL (≈ 0.000413 to 0.052 µM)
[4]
  MIC: 0.125 to 8 µg/mL (≈ 0.103 to 6.6 µM)
[5]
  MIC: 0.5 to 64 µg/mL (≈ 0.413 to 52.8 µM)
[6]
  MIC: 2 to 32 µg/mL (≈ 1.65 to 26.4 µM)
[7]
  MIC: 0.004 to 0.5 µg/mL (≈ 0.0033 to 0.413 µM)
[8]
  MIC: 0.0005 to 0.063 µg/mL (≈ 0.000413 to 0.052 µM)
[9]
  MIC: 0.25 to 32 µg/mL (≈ 0.206 to 26.4 µM)
[10]
  MIC: 0.125 to 16 µg/mL (≈ 0.103 to 13.2 µM)
[11]
  MIC: 0.004 to 0.5 µg/mL (≈ 0.0033 to 0.413 µM)
